According to patent US20240408169A1 (priority 2023, published 2024):
Like-named read-outs stand apart in the source and are kept apart here. *1 amine or outer side, *2 acyl side, *3 side chain or, on linkers, in order; H or OH if unused. Where a SMILES comes first, the peptide text is derived from it. Bridges are numbered along the chain shown (N, C = ends). [ ]: non-standard residue; d: D form. The star is where a group is joined. X136 = CN1CCOc2cc(-c3ccc(Cl)cc3C[C@@H](C(=O)[*:2])N(C)[*:1])ccc21; X90 = CC(=O)N1CC=C(c2ccc(Cl)cc2C[C@@H](C(=O)[*:2])N(C)[*:1])CC1; NMe3Pal(2-OiBu,5-Cl) = CN[C@@H](Cc1cc(Cl)cnc1OCC(C)C)C(=O)O; NMehhhLys(Me) = CN([C@@H](CCCCCCCN(C)[*:3])C(=O)[*:2])[*:1]; X66 = CN([C@@H](Cc1cc(Cl)ccc1-c1cccnc1)C(=O)[*:2])[*:1]; NMe(hhhLys) = CN([C@@H](CCCCCCCN[*:3])C(=O)[*:2])[*:1]; Oxane2carbonyl(2R-CF3) = O=C([C@@]1(C(F)(F)F)CCCCO1)*; X156 = CN([C@@H](Cc1cc(Cl)cc2ccccc12)C(=O)[*:2])[*:1]; cBuCO(3,3-F2-1-CF3) = O=C(C1(C(F)(F)F)CC(F)(F)C1)*; NMePhe(2,5-Cl2) = CN[C@@H](Cc1cc(Cl)ccc1Cl)C(=O)O; Pro(trans-4-F) = O=C(O)[C@@H]1C[C@@H](F)CN1; Gly(cPr) = N[C@H](C(=O)O)C1CC1

Experiments:
CyclinA2/CDK2 = molecular target: T1, CyclinA2/CDK2 (Homo sapiens, UniProt P20248); assay: Fluorescence Polarization (FP) competitive binding assay, Cyclin A2/Cdk2;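 further: plates equilibrated two hours at room temperature before polarization reading, IC50 fitted from eight-concentration compound titration curves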
T1 construct: purchased CRELUX Protein Services

OVCAR3 cells = assay: MTT proliferation assay, OVCAR3; format: cell-based; settings: 5 days compound exposure, 1:3 serial dilution starting at 10 μM;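 further: compound given as an 8- or 10-point series, one day after plating, with exposure covering roughly 3-4 cell doublings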
NCI-H1048 cells = assay: MTT proliferation assay, NCI-H1048; format: cell-based; settings: 5 days compound exposure, 1:3 serial dilution starting at 10 μM;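 further: Dose-response in 96-well plates over 8 or 10 concentration points, with exposure spanning 3-4 cell doublings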
CyclinE1/CDK2 = molecular target: T2, CyclinE1/CDK2 (Homo sapiens, UniProt P24864); assay: Fluorescence Polarization (FP) competitive binding assay, Cyclin E1/Cdk2;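 further: readings taken after two-hour equilibration at room temperature in HEPES buffer with NaCl, DTT, NP-40 and BSA, IC50 fitted from eight-concentration serial dilution series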
T2 construct: purchased Eurofins, discovery 14-475

CyclinB1/CDK1 = molecular target: T3, CyclinB1/CDK1 (Homo sapiens, UniProt P14635); assay: Fluorescence Polarization (FP) competitive binding assay, Cyclin B1/Cdk1;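 further: fluorescence polarization read after equilibration at room temperature, with IC50 taken from serially diluted dose-response curves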
T3 construct: purchased Eurofins, discovery 14-450

[1] = 8 nM Cyclin A2/Cdk2, 2 nM FAM probe; average of 2-3 independent experiments; read-out: Cyclin A FP IC50
[2] = 10 nM Cyclin E1/Cdk2, 2 nM FAM probe, average of 2-3 independent experiments, read-out: Cyclin E FP IC50
[3] = 10 nM Cyclin B1/Cdk1, 2 nM FAM probe; average of 2-3 independent experiments; read-out: Cyclin B FP IC50

Compound `CC(C)C[C@@H]1NC(=O)[C@@H](N(C)C(=O)[C@@H](NC(=O)[C@@H]2C[C@@H](F)CN2C(=O)C2(C(F)(F)F)CC(F)(F)C2)C2CC2)CCCCCCCN(C)C(=O)[C@H](Cc2cc(Cl)cc3ccccc23)N(C)C1=O` [Example 425] ({cBuCO(3,3-F2-1-CF3)}-[Pro(trans-4-F)][Gly(cPr)][NMehhhLys(Me)]L[X156]; lactam 3-C) has an IC50 (CyclinA2/CDK2; [1]) of 0.15 µM, a GI50 (OVCAR3 cells) of 0.24 µM and a GI50 (NCI-H1048 cells) of 0.16 µM. It also gave an IC50 (CyclinE1/CDK2; [2]) of 0.21 µM and an IC50 (CyclinB1/CDK1; [3]) of 0.02 µM.

Compound `CC(=O)N1CC=C(c2ccc(Cl)cc2C[C@H]2C(=O)N(C)CCCCCCC[C@H](N(C)C(=O)[C@@H](NC(=O)[C@@H]3C[C@@H](F)CN3C(=O)C3(C(F)(F)F)CC(F)(F)C3)C3CC3)C(=O)N[C@@H](CC(C)C)C(=O)N2C)CC1` [Example 50, (2S,4R)—N—((S)-2-(((3S,6S,9S)-3-(2-(1-acetyl-1,2,3,6-tetrahydropyridin-4-yl)-5-chlorobenzyl)-6-isobutyl-1,4-dimethyl-2,5,8-trioxo-1,4,7-triazacyclohexadecan-9-yl)(methyl)amino)-1-cyclopropyl-2-oxoethyl)-1-(3,3-difluoro-1-(trifluoromethyl)cyclobutane-1-carbonyl)-4-fluoropyrrolidine-2-carboxamide] ({cBuCO(3,3-F2-1-CF3)}-[Pro(trans-4-F)][Gly(cPr)][NMehhhLys(Me)]L[X90]; lactam 3-C) has a GI50 (OVCAR3 cells) of 0.01 µM, a GI50 (NCI-H1048 cells) of 0.01 µM and an IC50 (CyclinE1/CDK2; [2]) of 1.22 µM. For the same compound, the IC50 (CyclinB1/CDK1; [3]) was 0.02 µM.

With `CC(C)C[C@@H]1NC(=O)[C@@H](N(C)C(=O)[C@@H](NC(=O)[C@@H]2C[C@@H](F)CN2C(=O)C2(C(F)(F)F)CC(F)(F)C2)C2CC2)CCCCCCCN(C)C(=O)[C@H](Cc2cc(Cl)ccc2-c2ccc3c(c2)OCCN3C)N(C)C1=O` [Example 342] ({cBuCO(3,3-F2-1-CF3)}-[Pro(trans-4-F)][Gly(cPr)][NMehhhLys(Me)]L[X136]; lactam 3-C) the IC50 (CyclinA2/CDK2; [1]) was 0.02 µM, the GI50 (OVCAR3 cells) was 0.01 µM and the GI50 (NCI-H1048 cells) was 0.01 µM. The IC50 (CyclinE1/CDK2; [2]) was 0.59 µM and the IC50 (CyclinB1/CDK1; [3]) was 0.02 µM.

Compound `CC(C)C[C@@H]1NC(=O)[C@@H](N(C)C(=O)[C@@H](NC(=O)[C@@H]2C[C@@H](F)CN2C(=O)C2(C(F)(F)F)CCC2)C2CC2)CC=CCCCCNC(=O)[C@H](Cc2cc(Cl)ccc2Oc2ncccn2)N(C)C1=O` (single isomer, unassigned) [Example 156-P1] has an IC50 (CyclinA2/CDK2; [1]) of 0.89 µM, a GI50 (OVCAR3 cells) of 0.53 µM and a GI50 (NCI-H1048 cells) of 0.48 µM. It also gave an IC50 (CyclinE1/CDK2; [2]) of 0.83 µM and an IC50 (CyclinB1/CDK1; [3]) of 0.02 µM.

`CC(C)C[C@@H]1NC(=O)[C@@H](N(C)C(=O)[C@@H](NC(=O)[C@@H]2C[C@@H](F)CN2C(=O)C2(C(F)(F)F)CCC2)C2CC2)CC=CCCCCN(C)C(=O)[C@H](Cc2cc(F)ccc2-c2cnn(CC(F)F)c2)N(C)C1=O` [Example 83] was tested, and the IC50 (CyclinA2/CDK2; [1]) was 0.04 µM, the GI50 (OVCAR3 cells) was 0.01 µM and the GI50 (NCI-H1048 cells) was 0.02 µM. The IC50 (CyclinE1/CDK2; [2]) was 0.1 µM and the IC50 (CyclinB1/CDK1; [3]) was 0.02 µM.

`CC(C)COc1ncc(Cl)cc1C[C@H]1C(=O)N(C)CCCCCCC[C@H](N(C)C(=O)[C@@H](NC(=O)[C@@H]2C[C@@H](F)CN2C(=O)[C@@]2(C(F)(F)F)CCCCO2)C2CC2)C(=O)N[C@@H](CC(C)C)C(=O)N1C` [Example 229] ({Oxane2carbonyl(2R-CF3)}-[Pro(trans-4-F)][Gly(cPr)][NMehhhLys(Me)]L[NMe3Pal(2-OiBu,5-Cl)]; lactam 3-C) gave an IC50 (CyclinA2/CDK2; read-out: Cyclin A FP IC50; 8 nM Cyclin A2/Cdk2, 2 nM FAM probe; average of 2-3 independent experiments) of 0.02 µM, a GI50 (OVCAR3 cells) of 0.02 µM and a GI50 (NCI-H1048 cells) of 0.01 µM. It also gave an IC50 (CyclinE1/CDK2) of 0.1 µM and an IC50 (CyclinB1/CDK1; read-out: Cyclin B FP IC50; 10 nM Cyclin B1/Cdk1, 2 nM FAM probe; average of 2-3 independent experiments) of 0.02 µM.

Work on `CC(C)C[C@@H]1NC(=O)[C@@H](N(C)C(=O)[C@@H](NC(=O)[C@@H]2C[C@@H](F)CN2C(=O)C2(C(F)(F)F)CC(F)(F)C2)C2CC2)CC=CCCCCN(C)C(=O)[C@H](Cc2cc(F)ccc2-c2cncnc2)N(C)C1=O` [Example 38] yielded an IC50 (CyclinA2/CDK2; [1]) of 0.18 µM, a GI50 (OVCAR3 cells) of 0.16 µM and a GI50 (NCI-H1048 cells) of 0.06 µM. For the same compound, the IC50 (CyclinE1/CDK2; [2]) was 1.76 µM and the IC50 (CyclinB1/CDK1; [3]) was 0.02 µM.

`CC(C)C[C@@H]1NC(=O)[C@@H](N(C)C(=O)[C@@H](NC(=O)[C@@H]2C[C@@H](F)CN2C(=O)C2(C(F)(F)F)CC(F)(F)C2)C2CC2)CCCCCCCNC(=O)[C@H](Cc2cc(Cl)ccc2Cl)N(C)C1=O` [Example 7] ({cBuCO(3,3-F2-1-CF3)}-[Pro(trans-4-F)][Gly(cPr)][NMe(hhhLys)]L[NMePhe(2,5-Cl2)]; lactam 3-C) was tested, and the GI50 (OVCAR3 cells) was 0.05 µM, the GI50 (NCI-H1048 cells) was 0.02 µM and the IC50 (CyclinE1/CDK2; [2]) was 0.29 µM. The IC50 (CyclinB1/CDK1; [3]) was 0.02 µM.

In the case of `CC(C)C[C@@H]1NC(=O)[C@@H](N(C)C(=O)[C@@H](NC(=O)[C@@H]2C[C@@H](F)CN2C(=O)C2(C(F)(F)F)CC(F)(F)C2)C2CC2)CCCCCCCN(C)C(=O)[C@H](Cc2cc(Cl)ccc2-c2cccnc2)N(C)C1=O` [Example 196] ({cBuCO(3,3-F2-1-CF3)}-[Pro(trans-4-F)][Gly(cPr)][NMehhhLys(Me)]L[X66]; lactam 3-C), the GI50 (OVCAR3 cells) is reported as 0.01 µM, the GI50 (NCI-H1048 cells) is reported as 0.01 µM and the IC50 (CyclinE1/CDK2; [2]) is reported as 0.74 µM. It also gave an IC50 (CyclinB1/CDK1; [3]) of 0.02 µM.

For `CC(C)C[C@@H]1NC(=O)[C@@H](N(C)C(=O)[C@@H](NC(=O)[C@@H]2C[C@@H](F)CN2C(=O)C2(C(F)(F)F)CC(F)(F)C2)C2CC2)CC=CCCCCN(C)C(=O)[C@H](Cc2cc(Cl)ccc2Cl)N(C)C1=O` [Example 14], the GI50 (OVCAR3 cells) was 0.2 µM, the GI50 (NCI-H1048 cells) was 0.1 µM and the IC50 (CyclinE1/CDK2; [2]) was 0.34 µM. It also gave an IC50 (CyclinB1/CDK1; [3]) of 0.02 µM.
